From patent US6706663B2, “Herbicidal 3-heterocyclic substituted benzisothiazole and benzisoxazole compounds” (Wyeth, priority 2000, dated 2004)

What was measured:
[1] = tested on: AMBEL (Ambrosia artemisifolia); experiment: Postemergence herbicidal evaluation; assay type: in vivo, L.
Outline: (§1)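 Seedlings grown about two weeks in flats, sprayed, then kept under standard greenhouse care. Rated visually 4–5 weeks after treatment on a 0–9 scale (stand, vigour, malformation, size, chlorosis, overall appearance) relative to untreated control; repeat tests averaged.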

[2] = tested on: CASOB (Cassia obtusifolia); experiment: Postemergence herbicidal evaluation; assay type: in vivo, L.
Outline: as §1

[3] = tested on: CHEAL (Chenopodium album); experiment: Postemergence herbicidal evaluation; assay type: in vivo, L.
Outline: as §1

[4] = tested on: ECHCG (Echinochloa crus-galli); experiment: Postemergence herbicidal evaluation; assay type: in vivo, (L.) Beau
Outline: as §1

ORYSAT (Rice, Tebonnet) [5] = experiment: Postemergence herbicidal evaluation; assay type: in vivo, Oryza sativa, (L.) Tebonnet
Outline: as §1

ZEAMX (Corn, Field) = experiment: Postemergence herbicidal evaluation; assay type: in vivo, Zea mays, L.
Outline: as §1

[6] = tested on: IPOHE (Ipomoea hederacea); experiment: Preemergence herbicidal evaluation; assay type: in vivo, (L.) Jacq.; settings: preemergence, rated 4-5 weeks after treatment
[7] = tested on: GLXMAW (Soybean, Williams); experiment: Preemergence herbicidal evaluation; assay type: in vivo, Glycine max, (L.) Merr. cv Williams; settings: preemergence, rated 4-5 weeks after treatment
ORYSAT (Rice, Tebonnet) [8] = experiment: Preemergence herbicidal evaluation; assay type: in vivo, Oryza sativa, (L.) Tebonnet; settings: preemergence, rated 4-5 weeks after treatment
[9] = tested on: TRZAWR (Wheat, Winter, cv Riband); experiment: Preemergence herbicidal evaluation; assay type: in vivo, Triticum aestivum; settings: preemergence, rated 4-5 weeks after treatment
Outline: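 Applied before emergence as an aqueous acetone spray over seeded soil. Read-out: 0–9 visual rating covering plant stand, vigor, size, chlorosis, malformation and overall appearance compared with control, taken 4–5 weeks after spraying.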

[10] = tested on: ECHORC (Echinochloa oryzoides); experiment: Flooded paddy, preemergence weed control; assay type: in vivo, Echinochloa oryzoides (Ard.) Fritsch.; settings: rated 3-4 weeks after treatment, 0-9 rating scale
Outline: (§2)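 In this preemergence paddy assay, weed seeds or organs are sown at up to 0.5 cm in silt loam and covered by 1.5–3 cm of water for the full test period. After treatment the pots are kept in a greenhouse, and herbicidal effect is rated 0-9 visually against a control.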

CYPIR (Cyperus iria) = experiment: Flooded paddy, preemergence weed control; assay type: in vivo; settings: rated 3-4 weeks after treatment, 0-9 rating scale
Outline: as §2

Row | Compound | Postemergence herbicidal rating, AMBEL ([1]; rate 0.0320 kg/ha) | Postemergence herbicidal rating, AMBEL ([1]; rate 0.0620 kg/ha) | Postemergence herbicidal rating, CASOB ([2]; rate 0.0320 kg/ha) | Postemergence herbicidal rating, CASOB ([2]; rate 0.0620 kg/ha) | Postemergence herbicidal rating, CHEAL ([3]; rate 0.0320 kg/ha) | Postemergence herbicidal rating, CHEAL ([3]; rate 0.0620 kg/ha) | Postemergence herbicidal rating, ECHCG ([4]; rate 0.0320 kg/ha) | Postemergence herbicidal rating, ECHCG ([4]; rate 0.0620 kg/ha) | Postemergence herbicidal rating, ORYSAT (ORYSAT (Rice, Tebonnet) [5]; rate 0.0320 kg/ha) | Postemergence herbicidal rating, ORYSAT (ORYSAT (Rice, Tebonnet) [5]; rate 0.0620 kg/ha) | Postemergence herbicidal rating, ZEAMX (ZEAMX (Corn, Field); rate 0.0320 kg/ha) | Postemergence herbicidal rating, ZEAMX (ZEAMX (Corn, Field); rate 0.0620 kg/ha) | IPOHE preemergence herbicidal rating ([6]; Rate 0.0620 kg/ha) | IPOHE preemergence herbicidal rating ([6]; Rate 0.1250 kg/ha) | IPOHE preemergence herbicidal rating ([6]; Rate 0.2500 kg/ha) | GLXMAW preemergence herbicidal rating ([7]; Rate 0.0620 kg/ha) | GLXMAW preemergence herbicidal rating ([7]; Rate 0.1250 kg/ha) | GLXMAW preemergence herbicidal rating ([7]; Rate 0.2500 kg/ha) | ORYSAT preemergence herbicidal rating (ORYSAT (Rice, Tebonnet) [8]; Rate 0.0620 kg/ha) | ORYSAT preemergence herbicidal rating (ORYSAT (Rice, Tebonnet) [8]; Rate 0.1250 kg/ha) | also measured
1 | 1-methyl-3-[3-(1,3-oxathiolan-2-yl)-1,2-benzisothiazol-5-yl]-6-(trifluoromethyl)uracil S′,S′-dioxide [Compound 32] | 9.0 | 9.0 | 7.0 | 9.0 | 9.0 | 9.0 | 3.0 | 5.0 | 5.0 | 5.5 | 5.5 | 5.5 | 9.0 | 9.0 | 9.0 | 6.5 | 9.0 | 9.0 | 5.0 | 7.5 | ORYSAT preemergence herbicidal rating (ORYSAT (Rice, Tebonnet) [8]; Rate 0.2500 kg/ha): 8.5; TRZAWR preemergence herbicidal rating ([9]; Rate 0.0620 kg/ha): 7.0; TRZAWR preemergence herbicidal rating ([9]; Rate 0.1250 kg/ha): 8.0; TRZAWR preemergence herbicidal rating ([9]; Rate 0.2500 kg/ha): 9.0; herbicidal rating, ECHORC ([10]; rate 0.0320 kg/ha): 0.0; herbicidal rating, ECHORC ([10]; rate 0.1250 kg/ha): 0.0; herbicidal rating, CYPIR (CYPIR (Cyperus iria); rate 0.0320 kg/ha): 4.0; herbicidal rating, CYPIR (CYPIR (Cyperus iria); rate 0.1250 kg/ha): 7.0
2 | Cc1ccc(-c2nsc3ccc(N4C(=O)C5=C(CCCC5)C4=O)cc23)s1 [Compound 20, N-[3-(5-methyl-2-thienyl)-1,2-benzisothiazol-5-yl]-1-cyclohexene-1,2-dicarboximide] | 6.0 | 6.0 | 1.0 | 1.0 | 3.0 | 5.0 | 1.0 | 1.0 | 2.5 | 3.0 | 5.0 | 5.0 | 0.0 | 0.0 | 0.0 | 0.0 | 0.0 | 0.0 | 0.0 | 0.0 | Postemergence herbicidal rating, AMBEL ([1]; rate 0.1250 kg/ha): 9.0; Postemergence herbicidal rating, CASOB ([2]; rate 0.1250 kg/ha): 1.0; Postemergence herbicidal rating, CHEAL ([3]; rate 0.1250 kg/ha): 5.0; Postemergence herbicidal rating, ECHCG ([4]; rate 0.1250 kg/ha): 1.0; Postemergence herbicidal rating, ORYSAT (ORYSAT (Rice, Tebonnet) [5]; rate 0.1250 kg/ha): 4.5; Postemergence herbicidal rating, ZEAMX (ZEAMX (Corn, Field); rate 0.1250 kg/ha): 5.5; ORYSAT preemergence herbicidal rating (ORYSAT (Rice, Tebonnet) [8]; Rate 0.2500 kg/ha): 0.0; TRZAWR preemergence herbicidal rating ([9]; Rate 0.0620 kg/ha): 0.0; TRZAWR preemergence herbicidal rating ([9]; Rate 0.1250 kg/ha): 0.0; TRZAWR preemergence herbicidal rating ([9]; Rate 0.2500 kg/ha): 0.0; herbicidal rating, ECHORC ([10]; rate 0.0320 kg/ha): 5.0; herbicidal rating, ECHORC ([10]; rate 0.1250 kg/ha): 7.0; herbicidal rating, CYPIR (CYPIR (Cyperus iria); rate 0.0320 kg/ha): 2.0; herbicidal rating, CYPIR (CYPIR (Cyperus iria); rate 0.1250 kg/ha): 3.0
